In patent US11987647B2, “Cyclic cell-penetrating peptides with one or more hydrophobic residues” (Ohio State Innovation Foundation, priority 2018, dated 2024):
[ ]: non-standard residue; d: D form. The star is where a group is joined. FtBu = phenylalanine with a tert-butanoyl substituent (F^tBu); 2Nal = N[C@@H](Cc1ccc2ccccc2c1)C(=O)O; Fmoc = O=C(OCC1c2ccccc2-c2ccccc21)*; Decanoyl = CCCCCCCCCC(=O)*; Octanoyl = CCCCCCCC(=O)*; Orn = NCCC[C@H](N)C(=O)O; Dap = NC[C@H](N)C(=O)O; Hexanoyl = CCCCCC(=O)*

What was measured:
[1] = test system: HeLa cells; test: Cytosolic entry efficiency of NF-labelled peptides by flow cytometry; type: cell-based; details: for Cellular Entry Efficiency In 10% FBS: 2 h, relative to CPP12 (100%); for CPP activity compared with CPP1-4 (in words): variant of CPP1-4; for CPP activity compared with CPP1-15 (in words): stereochemical variation of CPP1-15; for sensitivity to serum concentration: 10% vs 1% FBS, compared with CPP9 or CPP12
Method: All of the peptides were labeled with naphthofluorescein (NF) at the Gln side chain through a long, flexible linker, miniPEG-Lys. HeLa cells were treated with 5 μM peptide for 2 h in the presence of 10% FBS and the cytosolic entry of the peptides was quantitated by flow cytometry analysis.
To determine cellular uptake efficiency of the CPPs disclosed herein, HeLa cells were cultured in 12-well plates (1.5×10^5 cells per well) overnight. The cells were incubated for 2 h with […] naphthofluorescein (NF)-labelled peptide in cellular media. At the end of incubation, the cells were washed with DPBS twice, detached from the plate with 0.25% trypsin, diluted into clear DMEM, pelleted at 250 g for 5 min, washed twice with DPBS, resuspended in DPBS, and analyzed on a BD FACS LSR II flow cytometer. For NF-labelled peptides, a 633-nm laser was used for excitation and the fluorescence emission was analyzed in the APC channel. Absolute cellular uptake efficiency was determined by comparing the concentration (via fluorescence intensity) of the CPP in the cytosol to the concentration in the extracellular medium. Relative cellular uptake efficiency was determined by comparing the cytosolic concentration of the CPP to that cytosolic concentration of the control CPP cyclo(FΦRRRRQ).

[2] = test system: HeLa cells; test: as above; type: cell-based; details: for Cellular Entry Efficiency In 1% FBS: relative to CPP12 (100%); for cytosolic entry efficiency: reduced serum concentration (1% FBS), CPP12 most active
[3] = Table 4, 5 μM NF-labelled peptide, 10% FBS
[4] = Table 7, 5 μM NF-labelled peptide, 10% FBS

Substance	Cellular Entry Efficiency In 10% FBS [1, 3] [%]	Cellular Entry Efficiency In 10% FBS [1, 4] [%]	CPP activity compared with CPP1-4 (in words) [1]	Cellular Entry Efficiency In 1% FBS ([2]; Table 4, NF-labelled peptide) [%]	Cellular Entry Efficiency In 1% FBS ([2]; Table 7, NF-labelled peptide) [%]	cytosolic entry efficiency [2] [%]	CPP activity compared with CPP1-15 (in words) [1]	sensitivity to serum concentration [1]	activity, fold higher than CPP1 ([1]; 10% FBS, versus CPP1) [fold]
cyclo(Dap^DecaRRRRRQ) (cyclo([Dap](Decanoyl)RRRRRQ); SMILES CCCCCCCCCC(=O)NC[C@@H]1NC(=O)[C@H](CCC(N)=O)NC(=O)[C@H](CCCNC(=N)N)NC(=O)[C@H](CCCNC(=N)N)NC(=O)[C@H](CCCNC(=N)N)NC(=O)[C@H](CCCNC(=N)N)NC(=O)[C@H](CCCNC(=N)N)NC1=O) [CPP1-14]	12 ± 1	12 ± 1	greatly decreased the CPP activity	21	21				
cyclo(Dap^DecaARRRQ) (cyclo([Dap](Decanoyl)ARRRQ); SMILES CCCCCCCCCC(=O)NC[C@@H]1NC(=O)[C@H](CCC(N)=O)NC(=O)[C@H](CCCNC(=N)N)NC(=O)[C@H](CCCNC(=N)N)NC(=O)[C@H](CCCNC(=N)N)NC(=O)[C@H](C)NC1=O) [CPP1-12]	26 ± 4	26 ± 4	reduced the CPP activity	34	34				
cyclo(Glu^DecyrRrRQ) [CPP1-25]	34	34							
cyclo(FΦRRRRQ) (cyclo(F[2Nal]RRRRQ); SMILES N=C(N)NCCC[C@@H]1NC(=O)[C@H](CCCNC(=N)N)NC(=O)[C@H](CCCNC(=N)N)NC(=O)[C@H](Cc2ccc3ccccc3c2)NC(=O)[C@H](Cc2ccccc2)NC(=O)[C@H](CCC(N)=O)NC(=O)[C@H](CCCNC(=N)N)NC1=O) [CPP1, the first cyclic CPP discovered, reference compound]	21	21							
cyclo(Dap^DecaRRRAQ) (cyclo([Dap](Decanoyl)RRRAQ); SMILES CCCCCCCCCC(=O)NC[C@@H]1NC(=O)[C@H](CCC(N)=O)NC(=O)[C@H](C)NC(=O)[C@H](CCCNC(=N)N)NC(=O)[C@H](CCCNC(=N)N)NC(=O)[C@H](CCCNC(=N)N)NC1=O) [CPP1-13]	32 ± 2	32 ± 2	reduced the CPP activity	33	33				
cyclo(Dap^1-PyrenRRRRQ) (cyclo([Dap](1‑pyrenoyl)RRRRQ)) [CPP1-5]	10 ± 20	10 ± 20							
cyclo(Dap^DecarRrRQ) [CPP1-11]	20 ± 6	20 ± 6	substantially decreased the CPP activity	29	29				
cyclo(Dap^3,3-diphenyRRRRQ) (cyclo([Dap](3,3‑diphenylpropanoyl)RRRRQ)) [CPP1-6]	3.9 ± 0.4	3.9 ± 0.4							
cyclo(Glu^DecyRrRrQ) [CPP1-23]	1.4	1.4							
cyclo(fΦRrRrQ) [CPP9, reference compound]	94 ± 7	94 ± 7		32 ± 6	32 ± 6	32			
cyclo(Dap^DecaRrRrQ) [CPP1-10]	21 ± 9	21 ± 9	substantially decreased the CPP activity	24	24				
cyclo(Lys^DecarRrRQ) [CPP1-19]	12	12					reduced the CPP activity		
cyclo(Lys^DecaRrRrQ) [CPP1-18]	31	31					reduced the CPP activity		
cyclo(Dap^FmocRRRRQ) (cyclo([Dap](Fmoc)RRRRQ); SMILES N=C(N)NCCC[C@@H]1NC(=O)[C@H](CCCNC(=N)N)NC(=O)[C@H](CCCNC(=N)N)NC(=O)[C@H](CNC(=O)OCC2c3ccccc3-c3ccccc32)NC(=O)[C@H](CCC(N)=O)NC(=O)[C@H](CCCNC(=N)N)NC1=O) [CPP1-7]	17 ± 1	17 ± 1							
cyclo(FfΦRrRrQ) [CPP12, reference compound]	100	100		100	100				
cyclo(Orn^DecaRRRRQ) (cyclo([Orn](Decanoyl)RRRRQ); SMILES CCCCCCCCCC(=O)NCCC[C@@H]1NC(=O)[C@H](CCC(N)=O)NC(=O)[C@H](CCCNC(=N)N)NC(=O)[C@H](CCCNC(=N)N)NC(=O)[C@H](CCCNC(=N)N)NC(=O)[C@H](CCCNC(=N)N)NC1=O) [CPP1-17]	115 ± 32	115 ± 32	slightly increased the CPP activity	58 ± 22	58 ± 22	58		lower sensitivity to serum concentration	
cyclo(F^tBuRRRRQ) (cyclo([FtBu]RRRRQ)) [CPP1-1]	6.7 ± 0.4	6.7 ± 0.4							
cyclo(Dap^DecaRRRRQ) (cyclo([Dap](Decanoyl)RRRRQ); SMILES CCCCCCCCCC(=O)NC[C@@H]1NC(=O)[C@H](CCC(N)=O)NC(=O)[C@H](CCCNC(=N)N)NC(=O)[C@H](CCCNC(=N)N)NC(=O)[C@H](CCCNC(=N)N)NC(=O)[C@H](CCCNC(=N)N)NC1=O) [CPP1-4]	57 ± 19	57 ± 19				44		lower sensitivity to serum concentration	2.5
cyclo(Asp^DecyrRrRQ) [CPP1-24]	8.6	8.6							
cyclo(Dap^HexanRRRRQ) (cyclo([Dap](Hexanoyl)RRRRQ); SMILES CCCCCC(=O)NC[C@@H]1NC(=O)[C@H](CCC(N)=O)NC(=O)[C@H](CCCNC(=N)N)NC(=O)[C@H](CCCNC(=N)N)NC(=O)[C@H](CCCNC(=N)N)NC(=O)[C@H](CCCNC(=N)N)NC1=O) [CPP1-2]	2.9 ± 0.2	2.9 ± 0.2							
cyclo(Asp^DecyRrRrQ) [CPP1-22]	11	11							
cyclo(Dap^1-PyrenebRRRRQ) (cyclo([Dap](1‑pyrenylbutanoyl)RRRRQ)) [CPP1-8]	24 ± 1	24 ± 1							
cyclo(Dap^OctanRRRRQ) (cyclo([Dap](Octanoyl)RRRRQ); SMILES CCCCCCCC(=O)NC[C@@H]1NC(=O)[C@H](CCC(N)=O)NC(=O)[C@H](CCCNC(=N)N)NC(=O)[C@H](CCCNC(=N)N)NC(=O)[C@H](CCCNC(=N)N)NC(=O)[C@H](CCCNC(=N)N)NC1=O) [CPP1-3]	5.7 ± 0.6	5.7 ± 0.6							
